# Results published in US7951829B2, “Benzimidazole modulators of VR1” (Janssen Pharmaceutica NV, priority 2006, dated 2011).
# Key:
# hVR1 [1] = target: T1, hVR1 (Homo sapiens, UniProt Q8NER1); assay: Human VR1 (hVR1) Functional Assay (FLIPR intracellular calcium, capsaicin challenge); format: cell-based; details: capsaicin 0.030 μM, HEK293 cells expressing hVR1; for inhibition at 1 µM: test concentration 1 μM
# T1 construct: expressed in transfected cells; host or cells: HEK293
# hVR1 [2] = target: T1, hVR1; assay: Human VR1 (hVR1) Binding Assay ([3H] RTX binding); details: inhibition of [3H] RTX binding, membranes of HEK293 cells transfected with hVR1
# T1 sequence (Q8NER1 whole entry): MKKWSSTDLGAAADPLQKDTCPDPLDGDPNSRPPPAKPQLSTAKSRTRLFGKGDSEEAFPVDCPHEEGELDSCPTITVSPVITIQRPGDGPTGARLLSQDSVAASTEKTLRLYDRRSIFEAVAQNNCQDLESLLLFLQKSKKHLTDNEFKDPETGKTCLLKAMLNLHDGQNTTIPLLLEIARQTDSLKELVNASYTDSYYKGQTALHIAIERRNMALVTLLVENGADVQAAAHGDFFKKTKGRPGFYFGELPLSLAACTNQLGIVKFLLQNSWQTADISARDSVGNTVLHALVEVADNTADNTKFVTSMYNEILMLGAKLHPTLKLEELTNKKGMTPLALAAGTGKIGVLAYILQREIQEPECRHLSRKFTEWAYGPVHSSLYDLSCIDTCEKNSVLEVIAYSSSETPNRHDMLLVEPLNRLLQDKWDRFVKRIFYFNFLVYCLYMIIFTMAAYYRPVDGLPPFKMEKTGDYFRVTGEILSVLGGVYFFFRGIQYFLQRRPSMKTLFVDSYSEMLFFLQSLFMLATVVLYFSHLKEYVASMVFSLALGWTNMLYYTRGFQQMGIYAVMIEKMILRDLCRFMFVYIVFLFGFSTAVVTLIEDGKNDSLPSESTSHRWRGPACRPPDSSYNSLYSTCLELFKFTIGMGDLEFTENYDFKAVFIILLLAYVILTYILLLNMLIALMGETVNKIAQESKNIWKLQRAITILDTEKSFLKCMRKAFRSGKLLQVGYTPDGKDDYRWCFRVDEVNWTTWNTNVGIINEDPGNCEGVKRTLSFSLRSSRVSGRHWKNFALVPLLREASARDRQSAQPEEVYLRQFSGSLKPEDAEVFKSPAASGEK
IC50 (hVR1 [1]) [nM],inhibition at 1 µM (hVR1 [1]) [%],Ki (hVR1 [2]) [nM],Structure (SMILES)
9,96,5.7,"CC(C)c1ccc(/C=C/c2nc3cc(-c4ccccc4NS(C)(=O)=O)ccc3[nH]2)cc1 [Cpd 407, (E)-N-(2-{2-[2-(4-isopropyl-phenyl)-vinyl]-1H-benzimidazol-5-yl}-phenyl)-methanesulfonamide]"
7,100,18,"NS(=O)(=O)c1ccccc1-c1ccc2[nH]c(/C=C/c3ccc(Cl)cc3)nc2c1 [Cpd 79, (E)-2-{2-[2-(4-chloro-phenyl)-vinyl]-1H-benzimidazol-5-yl}-benzenesulfonamide]"
22,99,22,"NS(=O)(=O)c1ccccc1-c1ccc2[nH]c(/C=C/c3ccc(S(=O)(=O)C(F)(F)F)cc3)nc2c1 [Cpd 71, (E)-2-{2-[2-(4-trifluoromethanesulfonyl-phenyl)-vinyl]-1H-benzimidazol-5-yl}-benzenesulfonamide]"
6,98,6,"NS(=O)(=O)c1ccccc1-c1ccc2[nH]c(/C=C/c3ccc(OC(F)(F)F)cc3)nc2c1 [Cpd 69, (E)-2-{2-[2-(4-trifluoromethoxy-phenyl)-vinyl]-1H-benzimidazol-5-yl}-benzenesulfonamide]"
8,99,–,"NS(=O)(=O)c1ccccc1-c1ccc2[nH]c(/C=C/c3ccc(F)c(C(F)(F)F)c3)nc2c1 [Cpd 369, (E)-2-{2-[2-(4-fluoro-3-trifluoromethyl-phenyl)-vinyl]-1H-benzimidazol-5-yl}-benzenesulfonamide]"
20,95,–,"NS(=O)(=O)c1ccccc1-c1ccc2[nH]c(CCc3cccc(C(F)(F)F)c3F)nc2c1 [Cpd 405, 2-{2-[2-(2-fluoro-3-trifluoromethyl-phenyl)-ethyl]-1H-benzimidazol-5-yl}-benzenesulfonamide]"
14,100,–,"CC(C)(C)c1ccc(/C=C/c2nc3cc(-c4ccccc4C(C)(C)O)ccc3[nH]2)cc1 [Cpd 463, (E)-2-(2-{2-[2-(4-tert-butyl-phenyl)-vinyl]-1H-benzimidazol-5-yl}-phenyl)-propan-2-ol]"
150,95,–,"CS(=O)(=O)Nc1ccccc1-c1ccc2[nH]c(/C=C/c3ccc4ccccc4c3)nc2c1 [Cpd 415, (E)-N-{2-[2-(2-naphthalen-2-yl-vinyl)-1H-benzimidazol-5-yl]-phenyl}-methanesulfonamide]"
12,99,–,"NS(=O)(=O)c1ccccc1-c1ccc2[nH]c(/C=C/c3ccc(SC(F)(F)F)cc3)nc2c1 [Cpd 380, (E)-2-{2-[2-(4-trifluoromethylsulfanyl-phenyl)-vinyl]-1H-benzimidazol-5-yl}-benzenesulfonamide]"
> 500,–,–,"CNS(=O)(=O)c1ccccc1-c1ccc2[nH]c(/C=C/c3ccc(S(C)(=O)=O)cc3)nc2c1 [Cpd 351, (E)-2-{2-[2-(4-methanesulfonyl-phenyl)-vinyl]-1H-benzimidazol-5-yl}-N-methyl-benzenesulfonamide]"
11,101,–,"CNS(=O)(=O)c1ccccc1-c1ccc2[nH]c(/C=C/c3ccc(F)c(Br)c3)nc2c1 [Cpd 317, (E)-2-{2-[2-(3-bromo-4-fluoro-phenyl)-vinyl]-1H-benzimidazol-5-yl}-N-methyl-benzenesulfonamide]"
77,–,–,"NS(=O)(=O)NCc1ccccc1-c1ccc2[nH]c(/C=C/c3ccc(C(F)(F)F)cc3)nc2c1 [Cpd 491, (E)-5-(2-aminosulfonylamino-methylphenyl)-2-[2-(4-trifluoromethyl-phenyl)-vinyl]-1H-benzimidazole]"
182,86,–,"CS(=O)(=O)Nc1ccccc1-c1ccc2[nH]c(C3CC3c3ccc(C(F)(F)F)cc3)nc2c1 (centres unmarked) [Cpd 467, N-(2-{2-[2-(4-trifluoromethyl-phenyl)-cyclopropyl]-1H-benzimidazol-5-yl}-phenyl)-methanesulfonamide]"
35,99,–,"CNS(=O)(=O)c1ccccc1-c1ccc2[nH]c(/C=C/c3cc(F)cc(F)c3)nc2c1 [Cpd 328, (E)-2-{2-[2-(3,5-difluoro-phenyl)-vinyl]-1H-benzimidazol-5-yl}-N-methyl-benzenesulfonamide]"

# The next lines start with the compound.
Structure (SMILES),IC50 (hVR1 [1]) [nM],inhibition at 1 µM (hVR1 [1]) [%],Ki (hVR1 [2]) [nM]
"CC(=O)c1ccccc1-c1ccc2[nH]c(/C=C/c3ccc(F)c(F)c3)nc2c1 [Cpd 27, (E)-1-(2-{2-[2-(3,4-difluoro-phenyl)-vinyl]-1H-benzimidazol-5-yl}-phenyl)-ethanone]",260,100,1800
"Oc1ccccc1-c1ccc2[nH]c(/C=C/c3ccc(C(F)(F)F)cc3)nc2c1 [Cpd 14, (E)-2-{2-[2-(4-trifluoromethyl-phenyl)-vinyl]-1H-benzimidazol-5-yl}-phenol]",1000,49,380
"Oc1ccccc1-c1ccc2[nH]c(/C=C/c3ccc(SC(F)(F)F)cc3)nc2c1 [Cpd 36, (E)-2-{2-[2-(4-trifluoromethylsulfanyl-phenyl)-vinyl]-1H-benzimidazol-5-yl}-phenol]",–,44,820
"CC(=O)Nc1ccccc1-c1cc2nc(/C=C/c3ccc(C(C)(C)C)cc3)[nH]c2cc1C(F)(F)F [Cpd 50, (E)-N-(2-{2-[2-(4-tert-butyl-phenyl)-vinyl]-6-trifluoromethyl-1H-benzimidazol-5-yl}-phenyl)-acetamide]",100,100,16
"CC(C)(C)c1ccc(/C=C/c2nc3cc(-c4ccccc4CO)c(C(F)(F)F)cc3[nH]2)cc1 [Cpd 51, (E)-(2-{2-[2-(4-tert-butyl-phenyl)-vinyl]-6-trifluoromethyl-1H-benzimidazol-5-yl}-phenyl)-methanol]",66,100,6.4
"CC(=O)c1ccccc1-c1ccc2[nH]c(/C=C/c3ccc(S(=O)(=O)C(F)(F)F)cc3)nc2c1 [Cpd 40, (E)-1-(2-{2-[2-(4-trifluoromethanesulfonyl-phenyl)-vinyl]-1H-benzimidazol-5-yl}-phenyl)-ethanone]",54,99,81
"CC(=O)c1ccccc1-c1ccc2[nH]c(/C=C/c3ccc(C(C)(C)C)cc3)nc2c1 [Cpd 1, (E)-1-(2-{2-[2-(4-tert-butyl-phenyl)-vinyl]-1H-benzimidazol-5-yl}-phenyl)-ethanone]",27,100,9.7
"CC(O)c1ccccc1-c1ccc2[nH]c(CCc3ccc(S(=O)(=O)C(F)(F)F)cc3)nc2c1 (centres unmarked) [Cpd 46, 1-(2-{2-[2-(4-trifluoromethanesulfonyl-phenyl)-ethyl]-1H-benzimidazol-5-yl}-phenyl)-ethanol]",46,100,–
"CC(C)(C)OC(=O)Nc1ccccc1-c1ccc2[nH]c(/C=C/c3ccc(C(C)(C)C)cc3)nc2c1 [Cpd 10, (E)-(2-{2-[2-(4-tert-butyl-phenyl)-vinyl]-1H-benzimidazol-5-yl}-phenyl)-carbamic acid tert-butyl ester]",280,94,–
"CC(O)c1ccccc1-c1ccc2[nH]c(/C=C/c3ccc(C(C)(C)C)cc3)nc2c1 (centres unmarked) [Cpd 2, (E)-1-(2-{2-[2-(4-tert-butyl-phenyl)-vinyl]-1H-benzimidazol-5-yl}-phenyl)-ethanol]",12,100,–
